PubChem BioAssay AID328 (DTP/NCI, 2004)
Where “and” joins values, the source holds several entries; their conditions need not be identical. Equal entries are not always repeated. Toxic doses and inconclusive results are not listed. Rule for the calls: active = survival T/C of 150% or more; inactive = T/C below 125% in these data.

Test system: BDF1 mice, P388 leukemia ip, median survival T/C
Assay: NCI In Vivo Anticancer Drug Screen. Data for tumor model P388 Leukemia (intraperitoneal) in B6D2F1 (BDF1) mice
Settings: endpoint: median survival time, higher = longer survival
Summary of the method: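 Read-out is survival of treated animals expressed relative to the vehicle group, as a T/C ratio.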

[1] = dose: 50.0 mg/kg/injection, schedule: Q04DX003 (ip), vehicle: saline with Tween-80
[2] = dose: 100.0 mg/kg/injection, schedule: Q04DX003 (ip), vehicle: saline with Tween-80
[3] = dose: 200.0 mg/kg/injection, schedule: Q04DX003 (ip), vehicle: saline with Tween-80
[4] = dose: 100.0 mg/kg/injection, schedule: Q01DX009 (ip), vehicle: saline with Tween-80
[5] = dose: 200.0 mg/kg/injection, schedule: Q01DX009 (ip), vehicle: saline with Tween-80
[6] = dose: 50.0 mg/kg/injection, schedule: Q01DX009 (ip), vehicle: Klucel (hydroxypropylcellulose) (HPC)
[7] = dose: 100.0 mg/kg/injection, schedule: Q01DX009 (ip), vehicle: Klucel (hydroxypropylcellulose) (HPC)
[8] = dose: 100.0 mg/kg/injection, schedule: Q04DX003 (ip), vehicle: Klucel (hydroxypropylcellulose) (HPC)
[9] = dose: 50.0 mg/kg/injection, schedule: Q01DX009 (ip), vehicle: saline with Tween-80

Measured: T/C

Cc1cc(NC(=O)NCc2ccc(N)cc2)ccc1S(=O)(=O)F
inactive: dose: 25.0 mg/kg/injection, schedule: Q01DX009 (ip), vehicle: saline 97 % of control | dose: 50.0 mg/kg/injection, schedule: Q01DX009 (ip), vehicle: saline 109 % of control | dose: 50.0 mg/kg/injection, schedule: Q04DX003 (ip), vehicle: saline 102 % of control | dose: 75.0 mg/kg/injection, schedule: Q01DX009 (ip), vehicle: saline 115 % of control | dose: 100.0 mg/kg/injection, schedule: Q01DX009 (ip), vehicle: saline 90 % of control and 124 % of control | dose: 100.0 mg/kg/injection, schedule: Q04DX003 (ip), vehicle: saline 102 % of control | dose: 150.0 mg/kg/injection, schedule: Q01DX009 (ip), vehicle: saline 92 % of control | dose: 200.0 mg/kg/injection, schedule: Q01DX009 (ip), vehicle: saline 106 % of control | dose: 200.0 mg/kg/injection, schedule: Q04DX003 (ip), vehicle: saline 100 % of control | dose: 400.0 mg/kg/injection, schedule: Q01DX009 (ip), vehicle: saline 99 % of control | dose: 400.0 mg/kg/injection, schedule: Q04DX003 (ip), vehicle: saline 97 % of control

[O]=[Sb]([c]1ccccc1)([c]1ccccc1)[c]1ccccc1
inactive: dose: 25.0 mg/kg/injection, schedule: Q04DX003 (ip), vehicle: saline with Tween-80 106 % of control | [1] 101 % of control | [2] 114 % of control

C=CCC1(CC)C(=O)NC(=O)NC1=O
inactive: [1] 91 % of control | [2] 91 % of control | [3] 91 % of control

Nc1c(Cl)cc(S(N)(=O)=O)cc1Cl
inactive: [4] 86 % of control | [2] 104 % of control | [5] 90 % of control | [3] 104 % of control | dose: 400.0 mg/kg/injection, schedule: Q04DX003 (ip), vehicle: saline with Tween-80 100 % of control

BrCc1c(CBr)c(CBr)c(CBr)c(CBr)c1CBr
inactive: dose: 25.0 mg/kg/injection, schedule: Q01DX009 (ip), vehicle: Klucel (hydroxypropylcellulose) (HPC) 95 % of control | dose: 25.0 mg/kg/injection, schedule: Q04DX003 (ip), vehicle: Klucel (hydroxypropylcellulose) (HPC) 109 % of control | [6] 100 % of control | dose: 50.0 mg/kg/injection, schedule: Q04DX003 (ip), vehicle: Klucel (hydroxypropylcellulose) (HPC) 100 % of control | [7] 109 % of control | [8] 95 % of control

CN(C)c1ccc(Cc2ccc(N(C)C)cc2[N+](=O)[O-])cc1
inactive: [8] 100 % of control | dose: 200.0 mg/kg/injection, schedule: Q04DX003 (ip), vehicle: Klucel (hydroxypropylcellulose) (HPC) 95 % of control | dose: 400.0 mg/kg/injection, schedule: Q04DX003 (ip), vehicle: Klucel (hydroxypropylcellulose) (HPC) 104 % of control

CCCC(=O)OCc1ccc(Cl)c(Cl)c1
inactive: dose: 25.0 mg/kg/injection, schedule: Q01DX009 (ip), vehicle: saline with Tween-80 100 % of control | [9] 108 % of control | [4] 112 % of control

CO[C@H]1C[C@H](O[C@H]2CC[C@@]3(C)[C@H](CC[C@@H]4[C@@H]3CC[C@]3(C)[C@@H](C5=CC(=O)OC5)CC[C@]43O)C2)O[C@H](C)[C@H]1O
inactive: dose: 4.3 mg/kg/injection, schedule: Q01DX009 (ip), vehicle: saline with Tween-80 99 % of control | dose: 6.4 mg/kg/injection, schedule: Q01DX009 (ip), vehicle: saline with Tween-80 107 % of control | dose: 9.6 mg/kg/injection, schedule: Q01DX009 (ip), vehicle: saline with Tween-80 107 % of control

Cc1ccc2ccccc2c1Cc1c(C=O)[nH]c(=S)[nH]c1=O
inactive: [2] 104 % of control | [3] 122 % of control

CC1C(=O)OC2CCN3CC4OC4(COC(=O)C(C)(O)C1(C)O)C23 (configuration not stated)
inactive: [6] 95 % of control | [7] 95 % of control | dose: 100.0 mg/kg/injection, schedule: Q04DX003 (ip), vehicle: saline sonified 108 % of control | dose: 200.0 mg/kg/injection, schedule: Q01DX009 (ip), vehicle: Klucel (hydroxypropylcellulose) (HPC) 100 % of control | dose: 400.0 mg/kg/injection, schedule: Q04DX003 (ip), vehicle: saline sonified 95 % of control

CN(C)c1ccc(Sc2ccc3nc(N)nc(N)c3c2)cc1
inactive: [9] 112 % of control | [4] 103 % of control
active: [5] 174 % of control
